Key:
Test in all cases: Drought stress test on crop plants, spray application in greenhouse, visual damage rating
Type in all cases: in vivo
Conditions in all cases: mean of three results
[1] = tested on: Hordeum vulgare (HORVS)
Protocol: Seeds of monocotyledonous and dicotyledonous crop plants were placed in sandy loam in wood-fiber pots, covered with soil and cultivated in a greenhouse under good growth conditions. The test plants were treated at the early leaf stage (BBCH10-BBCH13). To ensure uniform water supply before commencement of stress, the potted plants were supplied with the maximum amount of water immediately beforehand by dam irrigation and, after application, transferred in plastic inserts in order to prevent subsequent, excessively rapid drying. The inventive compounds, formulated in the form of wettable powders (WP), wettable granules (WG), suspension concentrates (SC) or emulsion concentrates (EC), were sprayed onto the green parts of the plants as an aqueous suspension at an equivalent water application rate of 600 l/ha with addition of 0.2% wetting agent (agrotin). Substance application was followed immediately by stress treatment of the plants (cold or drought stress). For cold stress treatment, the plants were kept under the following controlled conditions: Drought stress was induced by gradual drying out under the following conditions: “day”: 14 hours with illumination at 26° C. “night”: 10 hours without illumination at 18° C. The duration of the respective stress phases was guided mainly by the state of the untreated, stressed control plants and thus varies from crop to crop. It was ended (by re-irrigating or transfer to a greenhouse with good growth conditions) as soon as irreversible damage is observed on the untreated, stressed control plants. In the case of dicotyledonous crops, for example oilseed rape and soya, the duration of the drought stress phase was between 3 and 5 days, in the case of monocotyledonous crops, for example wheat, barley or corn, between 6 and 10 days. The duration of the cold stress phase varied between 12 and 14 days. The end of the stress phase was followed by an approx. 5-7-day recovery phase, during which the plants were once again kept under good growth conditions in a greenhouse. In order to rule out any influence of the effects observed by any fungicidal action of the test compounds, it was additionally ensured that the tests proceed without fungal infection and without infection pressure. After the recovery phase had ended, the intensities of damage were rated visually compared to untreated, unstressed controls of the same age (in the case of drought stress) or the same growth stage (in the case of cold stress). The intensity of damage was first assessed as a percentage (100%=plants have died, 0%=like control plants). These values were then used to calculate the efficacy of the test compounds (=percentage reduction in the intensity of damage as a result of substance application) by the following formula: [formula] EF: efficacy (%) DVus: damage value of the untreated, stressed control DVts: damage value of the plants treated with test compound The tables below list mean values in each case from three results of the same test. Effects of selected compounds of the formula (I) under drought stress: HORVS=Hordeum vulgare

[2] = tested on: Zea mays (ZEAMX)
Protocol: Seeds of monocotyledonous and dicotyledonous crop plants were placed in sandy loam in wood-fiber pots, covered with soil and cultivated in a greenhouse under good growth conditions. The test plants were treated at the early leaf stage (BBCH10-BBCH13). To ensure uniform water supply before commencement of stress, the potted plants were supplied with the maximum amount of water immediately beforehand by dam irrigation and, after application, transferred in plastic inserts in order to prevent subsequent, excessively rapid drying. The inventive compounds, formulated in the form of wettable powders (WP), wettable granules (WG), suspension concentrates (SC) or emulsion concentrates (EC), were sprayed onto the green parts of the plants as an aqueous suspension at an equivalent water application rate of 600 l/ha with addition of 0.2% wetting agent (agrotin). Substance application was followed immediately by stress treatment of the plants (cold or drought stress). For cold stress treatment, the plants were kept under the following controlled conditions: Drought stress was induced by gradual drying out under the following conditions: “day”: 14 hours with illumination at 26° C. “night”: 10 hours without illumination at 18° C. The duration of the respective stress phases was guided mainly by the state of the untreated, stressed control plants and thus varies from crop to crop. It was ended (by re-irrigating or transfer to a greenhouse with good growth conditions) as soon as irreversible damage is observed on the untreated, stressed control plants. In the case of dicotyledonous crops, for example oilseed rape and soya, the duration of the drought stress phase was between 3 and 5 days, in the case of monocotyledonous crops, for example wheat, barley or corn, between 6 and 10 days. The duration of the cold stress phase varied between 12 and 14 days. The end of the stress phase was followed by an approx. 5-7-day recovery phase, during which the plants were once again kept under good growth conditions in a greenhouse. In order to rule out any influence of the effects observed by any fungicidal action of the test compounds, it was additionally ensured that the tests proceed without fungal infection and without infection pressure. After the recovery phase had ended, the intensities of damage were rated visually compared to untreated, unstressed controls of the same age (in the case of drought stress) or the same growth stage (in the case of cold stress). The intensity of damage was first assessed as a percentage (100%=plants have died, 0%=like control plants). These values were then used to calculate the efficacy of the test compounds (=percentage reduction in the intensity of damage as a result of substance application) by the following formula: [formula] EF: efficacy (%) DVus: damage value of the untreated, stressed control DVts: damage value of the plants treated with test compound The tables below list mean values in each case from three results of the same test. Effects of selected compounds of the formula (I) under drought stress: ZEAMX=Zea mays

[3] = tested on: Brassica napus (BRSNS)
Protocol: Seeds of monocotyledonous and dicotyledonous crop plants were placed in sandy loam in wood-fiber pots, covered with soil and cultivated in a greenhouse under good growth conditions. The test plants were treated at the early leaf stage (BBCH10-BBCH13). To ensure uniform water supply before commencement of stress, the potted plants were supplied with the maximum amount of water immediately beforehand by dam irrigation and, after application, transferred in plastic inserts in order to prevent subsequent, excessively rapid drying. The inventive compounds, formulated in the form of wettable powders (WP), wettable granules (WG), suspension concentrates (SC) or emulsion concentrates (EC), were sprayed onto the green parts of the plants as an aqueous suspension at an equivalent water application rate of 600 l/ha with addition of 0.2% wetting agent (agrotin). Substance application was followed immediately by stress treatment of the plants (cold or drought stress). For cold stress treatment, the plants were kept under the following controlled conditions: Drought stress was induced by gradual drying out under the following conditions: “day”: 14 hours with illumination at 26° C. “night”: 10 hours without illumination at 18° C. The duration of the respective stress phases was guided mainly by the state of the untreated, stressed control plants and thus varies from crop to crop. It was ended (by re-irrigating or transfer to a greenhouse with good growth conditions) as soon as irreversible damage is observed on the untreated, stressed control plants. In the case of dicotyledonous crops, for example oilseed rape and soya, the duration of the drought stress phase was between 3 and 5 days, in the case of monocotyledonous crops, for example wheat, barley or corn, between 6 and 10 days. The duration of the cold stress phase varied between 12 and 14 days. The end of the stress phase was followed by an approx. 5-7-day recovery phase, during which the plants were once again kept under good growth conditions in a greenhouse. In order to rule out any influence of the effects observed by any fungicidal action of the test compounds, it was additionally ensured that the tests proceed without fungal infection and without infection pressure. After the recovery phase had ended, the intensities of damage were rated visually compared to untreated, unstressed controls of the same age (in the case of drought stress) or the same growth stage (in the case of cold stress). The intensity of damage was first assessed as a percentage (100%=plants have died, 0%=like control plants). These values were then used to calculate the efficacy of the test compounds (=percentage reduction in the intensity of damage as a result of substance application) by the following formula: [formula] EF: efficacy (%) DVus: damage value of the untreated, stressed control DVts: damage value of the plants treated with test compound The tables below list mean values in each case from three results of the same test. Effects of selected compounds of the formula (I) under drought stress: BRSNS=Brassica napus

[4] = tested on: Triticum aestivum (TRZAS)
Protocol: Seeds of monocotyledonous and dicotyledonous crop plants were placed in sandy loam in wood-fiber pots, covered with soil and cultivated in a greenhouse under good growth conditions. The test plants were treated at the early leaf stage (BBCH10-BBCH13). To ensure uniform water supply before commencement of stress, the potted plants were supplied with the maximum amount of water immediately beforehand by dam irrigation and, after application, transferred in plastic inserts in order to prevent subsequent, excessively rapid drying. The inventive compounds, formulated in the form of wettable powders (WP), wettable granules (WG), suspension concentrates (SC) or emulsion concentrates (EC), were sprayed onto the green parts of the plants as an aqueous suspension at an equivalent water application rate of 600 l/ha with addition of 0.2% wetting agent (agrotin). Substance application was followed immediately by stress treatment of the plants (cold or drought stress). For cold stress treatment, the plants were kept under the following controlled conditions: Drought stress was induced by gradual drying out under the following conditions: “day”: 14 hours with illumination at 26° C. “night”: 10 hours without illumination at 18° C. The duration of the respective stress phases was guided mainly by the state of the untreated, stressed control plants and thus varies from crop to crop. It was ended (by re-irrigating or transfer to a greenhouse with good growth conditions) as soon as irreversible damage is observed on the untreated, stressed control plants. In the case of dicotyledonous crops, for example oilseed rape and soya, the duration of the drought stress phase was between 3 and 5 days, in the case of monocotyledonous crops, for example wheat, barley or corn, between 6 and 10 days. The duration of the cold stress phase varied between 12 and 14 days. The end of the stress phase was followed by an approx. 5-7-day recovery phase, during which the plants were once again kept under good growth conditions in a greenhouse. In order to rule out any influence of the effects observed by any fungicidal action of the test compounds, it was additionally ensured that the tests proceed without fungal infection and without infection pressure. After the recovery phase had ended, the intensities of damage were rated visually compared to untreated, unstressed controls of the same age (in the case of drought stress) or the same growth stage (in the case of cold stress). The intensity of damage was first assessed as a percentage (100%=plants have died, 0%=like control plants). These values were then used to calculate the efficacy of the test compounds (=percentage reduction in the intensity of damage as a result of substance application) by the following formula: [formula] EF: efficacy (%) DVus: damage value of the untreated, stressed control DVts: damage value of the plants treated with test compound The tables below list mean values in each case from three results of the same test. Effects of selected compounds of the formula (I) under drought stress: TRZAS=Triticum aestivum

In the case of `NC(=O)c1cccc2[nH]c(C(F)(F)Cl)nc12` [1-1, 2-[chloro(difluoro)methyl]-1H-benzimidazole-4-carboxamide], the “EF (HORVS), efficacy = percentage reduction in the intensity of damage” value ([1]; 100 g/ha) is reported as greater than 5%.

For `NC(=O)c1cccc2[nH]c(C(F)C(F)(F)F)nc12` (stereo not drawn) [1-8], the “EF (ZEAMX), efficacy = percentage reduction in the intensity of damage” value ([2]; 25 g/ha) was greater than 5%, the “EF (HORVS), efficacy = percentage reduction in the intensity of damage” value ([1]; 50 g/ha) was greater than 5% and the “EF (BRSNS), efficacy = percentage reduction in the intensity of damage” value ([3]; 50 g/ha) was greater than 5%.

In the case of `CC(C)NC(=O)c1cccc2[nH]c(C(F)(F)F)nc12` [1-21], the “EF (HORVS), efficacy = percentage reduction in the intensity of damage” value ([1]; 25 g/ha) is reported as greater than 5%.

`C=CCCOC(F)(F)c1nc2c(C(N)=O)cccc2[nH]1` [1-89] was tested, and the “EF (ZEAMX), efficacy = percentage reduction in the intensity of damage” value ([2]; 250 g/ha) was greater than 5% and the “EF (BRSNS), efficacy = percentage reduction in the intensity of damage” value ([3]; 250 g/ha) was greater than 5%.

For `CCC(C)COC(F)(F)c1nc2c(C(N)=O)cccc2[nH]1` (stereo not drawn) [1-90], the “EF (ZEAMX), efficacy = percentage reduction in the intensity of damage” value ([2]; 250 g/ha) was greater than 5% and the “EF (TRZAS), efficacy = percentage reduction in the intensity of damage” value ([4]; 250 g/ha) was greater than 5%.

In the case of `CCCCn1c(C(F)(F)F)nc2c(C(N)=O)cccc21` [1-69], the “EF (TRZAS), efficacy = percentage reduction in the intensity of damage” value ([4]; 25 g/ha) is reported as greater than 5% and the “EF (BRSNS), efficacy = percentage reduction in the intensity of damage” value ([3]; 25 g/ha) is reported as greater than 5%.

In the case of `NC(=O)c1cccc2[nH]c(C(F)(F)OCC3CC3)nc12` [1-84], the “EF (ZEAMX), efficacy = percentage reduction in the intensity of damage” value ([2]; 25 g/ha) is reported as greater than 5%.
